Assay [1] has as its target T1, reverse transcriptase (Human immunodeficiency virus type 1 group M subtype B, UniProt P04585).
T1 construct: negative control (mixture without reverse transcriptase); purchased Roche Diagnostics GmbH, Mannheim, Germany
The experiment in a line: Biochemical Reverse Transcriptase Assay (Reverse Transcriptase Assay, colorimetric, Roche). The procedure:
The “Reverse Transcriptase Assay, colorimetric” (Roche Diagnostics GmbH, Mannheim, Germany) is used in accordance with the manufacturer's information. The test substances are dissolved in DMSO and are used in the test diluted in 5-fold steps (final DMSO concentration 1%). The resulting values of the photometric evaluation (405/492 nm) are less than 0.1 for the negative control (mixture without reverse transcriptase) and are in the region of 1.5 for the positive control (mixture without test substance). The IC50 values of the test substances are determined as the concentration of the test substance dilution at which the measured optical density is 50% of the positive control.

Assay [2] has as its system HIV-1LAI. In words: H9 assay with wild-type HIV-1 (HIV-1LAI supernatant infection, AlamarBlue). It counts as cell-based. The settings on record: Human immunodeficiency virus 1, H9 cells, 10% FCS. The procedure:
For the mixture for a 96-well MTP, 3 million PBLs are pelleted, suspended in 1 ml of RPMI 1640 medium/10% FCS and incubated together with a suitable amount of HIV-1LAI (NIH AIDS Research & Reference Reagent Program, Germantown, USA) at 37° C. for 2 hours (pellet infection). Unadsorbed viruses are subsequently washed out with PBS, and the infected cells are pelleted again and suspended in 18 ml of RPMI 1640 medium/10% FCS/interleukin-2 (40 U/ml). 180 μl thereof are pipetted into each well of a white 96-well MTP with 20 μl of test substance in suitable dilution. Alternatively, after preparation of the substance dilutions in the MTP, the HIV is pipetted in together with the cells and is not washed out again (supernatant infection). In order to avoid edge effects, the wells at the edge of the MTP are not used for substance dilutions. The second vertical row of the MTP contains only infected cells (virus control) and the eleventh vertical row only uninfected cells (cell control), in each case in RPMI 1640 medium/10% FCS/interleukin-2 (40 U/ml). The other wells of the MTP contain the compounds of the invention in various concentrations starting from the third vertical row, from which the test substances are diluted in 3-fold steps up to the tenth vertical row 3^7-fold. The test substances are dissolved in DMSO, whereby the final DMSO concentration in the test mixture eventually is 1%. The test mixtures are incubated at 37° C./5% CO2. After 5 and 7 days, 50 μl of cell-free supernatant are removed from each well to determine the amount of p24 present by means of a p24 ELISA (HIV-1 p24^CA Antigen Capture Assay Kit, NCI-Frederick Cancer Research and Development Center, Frederick, USA). From the resulting values of the photometric evaluation (450/620 nm) the EC50 values of the test substances are determined as the concentration at which the amount of p24 is 50% of the untreated infected cells.
Alternatively, H9 cells (ATCC, Wesel, Germany) are employed instead of PBLs for testing the test substances. H9 cells are incubated in RPMI 1640 medium with 2% or 10% FCS as a HIV-1LAI supernatant infection at 37° C./5% CO2, (20 μl of substance dilution and 80 μl of cells/virus per well) in accordance with the pattern described above for 5 days. Subsequently, 10 μl of AlamarBlue (Invitrogen, Karlsruhe, Germany) are added to each well, and the MTPs are incubated at 37° C. for 3 hours before the fluorimetric evaluation takes place (544/590 nm). The resulting values are about 40 000 for the untreated uninfected cells and about 7000 for the untreated infected cells. In the low concentration range, the EC50 values of the test substances are determined as the concentration at which the fluorescence is 50% of the untreated uninfected cells (in each case subtracting the values of the untreated infected cells). In addition, in the high concentration range, the CC50 values of the test substances are determined as the concentration at which the fluorescence is 50% of the untreated uninfected cells (in each case subtracting the values of the untreated infected cells).
(In general: The colour change of resazurin is a common sign of viable cells or microbes.)

Assay [3] has as its system HIV-1NL4-3 wt. In words: Light assay with wild-type HI reporter virus in MT4 7F2 cells. It counts as cell-based. The settings on record: Human immunodeficiency virus 1, 2% FCS. The procedure: (§1) For the mixture for a 96-well MTP, 3 million MT4 7F2 cells are pelleted, suspended in 1 ml of RPMI 1640 medium without phenol red (Invitrogen, Karlsruhe, Germany)/10% FCS/10% AIM-V (Invitrogen, Karlsruhe, Germany) and incubated together with a suitable amount of the corresponding HIV-1NL4-3 reporter virus at 37° C. for 2 hours (pellet infection). Unadsorbed viruses are subsequently washed out with PBS, and the infected cells are pelleted again and suspended in 8 ml of RPMI 1640 medium without phenol red/2% or 10% FCS/10% AIM-V. 80 μl thereof are pipetted into each well of a white 96-well MTP with 20 μl of test substance in suitable dilution. To avoid edge effects, the wells on the edge of the MTP are not used for substance dilutions. The second vertical row of the MTP contains only infected cells (virus control) and the eleventh vertical row only uninfected cells (cell control), in each case in RPMI 1640 medium without phenol red/2% or 10% FCS/10% AIM-V. The other wells of the MTP contain the compounds of the invention in various concentrations starting from the third vertical row, from which the test substances are diluted in 3-fold steps up to the tenth vertical row 3^7-fold. The test substances are dissolved in DMSO, whereby the final DMSO concentration in the test mixture eventually is 1%. The test mixtures are incubated at 37° C./5% CO2 for five days and, after the addition of 15 μl of Lu164 substrate (5 mg/ml coelenterazine dissolved in 30 μM glutathione/DMSO, 100 mM NaCl, 1M MES, 100 mM glutathione), evaluated by luminometry. The resulting values are in the region of 1 000 000 RLUs (relative light units) for the virus control and 300 to 400 RLUs for the cell control. The EC50 values of the test substances are determined as the concentration at which the virus replication measured in RLUs is 50% of the untreated infected cells.

Assay [4] concerns HIV-1NL4-3 K103N-Y181C. The experiment in a line: Light assay with inhibitor-resistant HI reporter virus in MT4 7F2 cells. The assay is classed as cell-based. The settings on record: Human immunodeficiency virus 1, read-out: EC50 (nM) MT4 7F2 cells HIV-1NL4-3 K103N-Y181C 2% FCS. The procedure: as §1

Where two headings read alike, the source gives them in different places.

Broadly, the IC50 is the concentration needed to halve the response being measured. By EC50 is commonly meant the concentration giving half of the maximal effect. Regarding `O=C1CN(C(=O)c2cc(-c3cc(F)cc(Cl)c3)n(-c3ccc(F)c(Cl)c3)n2)CN1` [Example 1, 1-{[1-(3-Chloro-4-fluorophenyl)-5-(3-chloro-5-fluorophenyl)-1H-pyrazol-3-yl]carbonyl}imidazolidin-4-one], the IC50 in assay [1] (read-out: IC50 (nM) RT Assay) came out at 38 nM. The EC50 turned out to be 2 nM in assay [2], 0.2 nM in assay [3] and 3 nM in assay [4].
On the same counts, the results for `O=C1CN(C(=O)c2cc(-c3cc(F)cc(Cl)c3)n(-c3cccc(Cl)c3)n2)CN1` [Example 2, 1-{[5-(3-Chloro-5-fluorophenyl)-1-(3-chlorophenyl)-1H-pyrazol-3-yl]carbonyl}imidazolidin-4-one] are 34 nM, 0.2 nM, 0.06 nM and 11 nM.
The corresponding values for `O=C1CN(C(=O)c2cc(-c3cc(F)cc(F)c3)n(-c3cccc(Cl)c3)n2)CN1` [Example 3, 1-{[1-(3-Chlorophenyl)-5-(3,5-difluorophenyl)-1H-pyrazol-3-yl]carbonyl}imidazolidin-4-one] are 37 nM, 0.2 nM, 0.03 nM and 7 nM.
On the same counts, the results for `O=C1CN(C(=O)c2cc(-c3cccc(Cl)c3)n(-c3cccc(Cl)c3)n2)CN1` [Example 4, 1-{[1,5-Bis(3-chlorophenyl)-1H-pyrazol-3-yl]carbonyl}imidazolidin-4-one] are 75 nM, 11 nM, 1 nM and 45 nM.
For `COc1cc(F)cc(-c2cc(C(=O)N3CNC(=O)C3)nn2-c2cccc(Cl)c2)c1` [Example 21, 1-{[1-(3-Chlorophenyl)-5-(3-fluoro-5-methoxyphenyl)-1H-pyrazol-3-yl]carbonyl}imidazolidin-4-one], the IC50 in assay [1] (read-out: IC50 (nM) RT Assay) stood at 59 nM. Also, the half-maximal effective concentration (EC50) in assay [2] was found to be 3 nM; in assay [3], 1 nM; in assay [4] it was 38 nM.
On the same counts, the results for `COc1cc(F)cc(-c2cc(C(=O)N3CNC(=O)C3)nn2-c2ccc(F)c(Cl)c2)c1` [Example 22, 1-{[1-(3-Chloro-4-fluorophenyl)-5-(3-fluoro-5-methoxyphenyl)-1H-pyrazol-3-yl]carbonyl}imidazolidin-4-one] are 131 nM, 2 nM, 0.3 nM and 10 nM.
The corresponding values for `N#Cc1cccc(-c2cc(C(=O)N3CNC(=O)C3)nn2-c2ccc(F)c(Cl)c2)c1` [Example 25] are 99 nM, 2 nM, 0.6 nM and 30 nM.
The corresponding values for `O=C1CN(C(=O)c2cc(-c3cccc(F)c3)n(-c3ccc(F)c(Cl)c3)n2)CN1` [Example 26, 1-{[1-(3-Chloro-4-fluorophenyl)-5-(3-fluorophenyl)-1H-pyrazol-3-yl]carbonyl}imidazolidin-4-one] are 104 nM, 11 nM, 2 nM and 65 nM.
For `O=C1CN(C(=O)c2cc(-c3cc(F)cc(C(F)(F)F)c3)n(-c3cccc(Cl)c3)n2)CN1` [Example 30, 1-({1-(3-Chlorophenyl)-5-[3-fluoro-5-(trifluoromethyl)phenyl]-1H-pyrazol-3-yl}carbonyl)imidazolidin-4-one], the IC50 in assay [1] (read-out: IC50 (nM) RT Assay) was found to be 297 nM. The 50% effective concentration (EC50) in assay [2] amounted to 8 nM; in assay [3] it was 3 nM; in assay [4], 16 nM.
The corresponding values for `O=C1CN(C(=O)c2cc(-c3cccc(Cl)c3)n(-c3cccc(Br)c3)n2)CN1` [Example 32, 1-{[1-(3-Bromophenyl)-5-(3-chlorophenyl)-1H-pyrazol-3-yl]carbonyl}imidazolidin-4-one] are 65 nM, 0.7 nM, 0.1 nM and 25 nM.
The corresponding values for `O=C1CN(C(=O)c2cc(-c3ccc(F)c(Cl)c3)n(-c3cccc(Br)c3)n2)CN1` [Example 33, 1-{[1-(3-Bromophenyl)-5-(3-chloro-4-fluorophenyl)-1H-pyrazol-3-yl]carbonyl}imidazolidin-4-one] are 8 nM, 0.5 nM, 0.07 nM and 3 nM.
Compound `O=C1CN(C(=O)c2cc(-c3cc(F)cc(OCCO)c3)n(-c3ccc(F)c(Cl)c3)n2)CN1` [Example 36] returned a half-inhibitory concentration (IC50) in assay [1] of 52 nM. In addition, the half-maximal effective concentration (EC50) in assay [2] was 3 nM; in assay [3] it was 0.6 nM; in assay [4] it was 45 nM.
In the case of `O=C1CN(C(=O)c2cc(-c3cccc(OCCCN4CCOCC4)c3)n(-c3cccc(Cl)c3)n2)CN1` [Example 37, 1-({1-(3-Chlorophenyl)-5-[3-(3-morpholin-1-ylpropoxy)phenyl]-1H-pyrazol-3-yl}carbonyl)imidazolidin-4-one], the concentration for half-maximal inhibition (IC50) in assay [1] (read-out: IC50 (nM) RT Assay) stood at 175 nM. Moreover, the EC50 is 33 nM in assay [2], 18 nM in assay [3] and 2000 nM in assay [4].
With `COc1cccc(-c2cc(C(=O)N3CNC(=O)C3)nn2-c2ccc(F)c(Cl)c2)c1` [Example 38, 1-{[1-(3-Chloro-4-fluorophenyl)-5-(3-methoxyphenyl)-1H-pyrazol-3-yl]carbonyl}imidazolidin-4-one], the IC50 in assay [1] (read-out: IC50 (nM) RT Assay) was found to be 365 nM. The EC50 was determined as 120 nM in assay [2], 9 nM in assay [3] and 80 nM in assay [4].
Regarding `Cc1cc(F)cc(-c2cc(C(=O)N3CNC(=O)C3)nn2-c2cccc(Cl)c2)c1` [Example 51, 1-{[1-(3-Chlorophenyl)-5-(3-fluoro-5-methylphenyl)-1H-pyrazol-3-yl]carbonyl}imidazolidin-4-one], the half-maximal inhibitory concentration (IC50) in assay [1] (read-out: IC50 (nM) RT Assay) is 60 nM. Further, the concentration giving a half-maximal response (EC50) was 1 nM in assay [2], 0.4 nM in assay [3] and 15 nM in assay [4].
The corresponding values for `N#Cc1cccc(-n2nc(C(=O)N3CNC(=O)C3)cc2-c2ccc(F)c(Cl)c2)c1` [Example 52, 1-{[5-(3-Chloro-4-fluorophenyl)-1-(3-Cyanophenyl)-1H-pyrazol-3-yl]carbonyl}imidazolidin-4-one] are 38 nM, 2 nM, 0.1 nM and 17 nM.
